The target in experiment [1] is T1, CDK9/Cyclin T1 (Homo sapiens, UniProt P50750).
T1 construct: purchased Invitrogen
As to the kind of experiment: LanthaScreen Eu Kinase Binding Assay, CDK9/Cyclin T1. Conditions: tracer 236, read-out: Affinity (Kd) CDK9/Cyclin T1. The procedure: (§1) This protocol describes how the LanthaScreen Eu Kinase Binding Assay was performed to determine dissociation constants (Kd) of compounds of general formula (I) and CDK/Cyclin complexes. The principle behind this assay is based upon the binding and displacement of an Alexa Fluor 647-labeled tracer, which binds to the active site of kinases. Binding of the tracer to the kinase is detected using a Eu-labeled antibody. Simultaneous binding of both the tracer and antibody to the kinase gives rise to a FRET-signal. Binding of an inhibitor to the kinase competes for binding with the tracer, resulting in a loss of FRET.
(§2) The compounds of general formula (I) summarized in Table 1 were diluted from a 10 mM DMSO stock solution 1:10 in a total volume of 15 μL DMSO. This compound predilution was then serial diluted 1:3 over 8 steps in DMSO and briefly spun down. Each compound solution was now diluted 1:33.33 in kinase buffer (HEPES: 20 mM, pH: 8.0; MgCl2: 10 mM; DTT: 1 mM; Brij-35: 0.01%), mixed thoroughly and spun down. For every sample, 5 μL of the diluted compound were mixed with 5 μL tracer working solution (e.g. 60 nM tracer 236 in kinase buffer for CDK2/Cyclin A) and 5 μL CDK/Cyclin/Anti-GST-AB-working solution (e.g. 15 nM CDK2/Cyclin A, 1:250 dilution of Anti-GST-AB in kinase buffer) in a well of a small volume 384 well plate (Corning Incorporated, Corning, N.Y., USA; order no. 3673). […] For positive controls, in each well 5 μL of DMSO working solution (3% DMSO diluted in kinase buffer) was mixed with 5 μL CDK/Cyclin/Anti-GST-AB-working solution: (e.g. 15 nM CDK2/Cyclin A, 1:250 dilution of Anti-GST-AB in kinase buffer) and 5 μL Tracer working solution (e.g. 60 nM Tracer 236 in kinase buffer for CDK2/Cyclin A). Positive and negative controls were calculated from at least 8 different sample wells. The 384 well plates were mixed in a Teleshaker plate mixer (Beckman Coulter, Brea, Calif., USA) at 2000 rpm for 40 sec, and incubated for 1 h at room temperature before reading. The FRET signal was measured at 340 nm excitation, 665 nm and 615 nm emission (for the kinase tracer and LanthaScreen Eu-AB, respectively) with an Envision spectrophotometer (Perkin Elmer, Waltham, Mass., USA) with 50 μs delay and 300 μs integration time. Kd values were determined from the sigmoidal dose response curves with the software Quattro Workflow (Quattro GmbH, Munich, Germany).
For orientation: TR-FRET usually uses a lanthanide donor and a delayed reading to cut background.

Experiment [2] has as its target T2, CDK7/CyclinH/Mat1 (Homo sapiens, UniProt P50613).
T2 construct: purchased Carna Biosciences
The experiment is described as follows: LanthaScreen Eu Kinase Binding Assay, CDK7. The conditions noted are these: tracer 236, read-out: Affinity (Kd) CDK7. The procedure: as §1, §2

In experiment [3] the target is T3, CDK2/CyclinA (Homo sapiens, UniProt P24941).
T3 construct: purchased Proqinase
As to the kind of experiment: LanthaScreen Eu Kinase Binding Assay, CDK2. The conditions noted are these: tracer 236, read-out: Affinity (Kd) CDK2. As for the experimental part: as §1, §2

Experiment [4] concerns the target T4, CDK9/Cyclin K (Homo sapiens, UniProt P50750).
T4 construct: purchased Invitrogen
As to the kind of experiment: LanthaScreen Eu Kinase Binding Assay, CDK9/Cyclin K. The conditions noted are these: tracer 236, read-out: Affinity (Kd) CDK9/Cyclin K. The procedure:
as §1, §2

This is an account of results in patent US20130079345A1, “[…] ACTIVE DISUBSTITUTED TRIAZINE DERIVATIVES” (BAYER INTELLECTUAL PROPERTY GMBH, priority 2010, published 2013).

T4 sequence (P50750 whole entry): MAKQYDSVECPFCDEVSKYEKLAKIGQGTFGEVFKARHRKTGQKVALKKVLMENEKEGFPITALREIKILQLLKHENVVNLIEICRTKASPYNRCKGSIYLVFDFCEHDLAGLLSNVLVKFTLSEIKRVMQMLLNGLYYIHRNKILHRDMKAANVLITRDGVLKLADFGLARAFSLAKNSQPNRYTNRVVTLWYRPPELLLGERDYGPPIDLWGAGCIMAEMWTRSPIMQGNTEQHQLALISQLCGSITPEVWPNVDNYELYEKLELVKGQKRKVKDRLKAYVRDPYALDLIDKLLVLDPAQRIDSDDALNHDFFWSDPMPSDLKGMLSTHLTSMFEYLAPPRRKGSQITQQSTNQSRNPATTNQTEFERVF
T4 sequence (O75909 whole entry partner): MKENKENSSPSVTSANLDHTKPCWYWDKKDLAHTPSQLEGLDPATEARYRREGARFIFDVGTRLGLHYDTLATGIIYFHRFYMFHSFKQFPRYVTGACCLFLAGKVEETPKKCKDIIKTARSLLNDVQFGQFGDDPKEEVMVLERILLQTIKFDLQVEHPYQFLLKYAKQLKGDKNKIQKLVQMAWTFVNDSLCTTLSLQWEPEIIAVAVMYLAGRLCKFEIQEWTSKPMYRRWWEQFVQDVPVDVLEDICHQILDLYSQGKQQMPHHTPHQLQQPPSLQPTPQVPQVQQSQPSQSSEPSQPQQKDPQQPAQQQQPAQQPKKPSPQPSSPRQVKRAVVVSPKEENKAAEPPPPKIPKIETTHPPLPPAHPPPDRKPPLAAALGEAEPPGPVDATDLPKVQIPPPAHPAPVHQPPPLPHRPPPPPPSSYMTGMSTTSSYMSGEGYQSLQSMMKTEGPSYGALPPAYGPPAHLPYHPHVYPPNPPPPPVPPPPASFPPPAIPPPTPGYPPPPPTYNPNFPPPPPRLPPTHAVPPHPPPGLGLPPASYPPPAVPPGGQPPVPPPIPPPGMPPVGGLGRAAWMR
T1 sequence (P50750 whole entry): as the sequence (P50750 whole entry) above
T1 sequence (O60563 whole entry partner): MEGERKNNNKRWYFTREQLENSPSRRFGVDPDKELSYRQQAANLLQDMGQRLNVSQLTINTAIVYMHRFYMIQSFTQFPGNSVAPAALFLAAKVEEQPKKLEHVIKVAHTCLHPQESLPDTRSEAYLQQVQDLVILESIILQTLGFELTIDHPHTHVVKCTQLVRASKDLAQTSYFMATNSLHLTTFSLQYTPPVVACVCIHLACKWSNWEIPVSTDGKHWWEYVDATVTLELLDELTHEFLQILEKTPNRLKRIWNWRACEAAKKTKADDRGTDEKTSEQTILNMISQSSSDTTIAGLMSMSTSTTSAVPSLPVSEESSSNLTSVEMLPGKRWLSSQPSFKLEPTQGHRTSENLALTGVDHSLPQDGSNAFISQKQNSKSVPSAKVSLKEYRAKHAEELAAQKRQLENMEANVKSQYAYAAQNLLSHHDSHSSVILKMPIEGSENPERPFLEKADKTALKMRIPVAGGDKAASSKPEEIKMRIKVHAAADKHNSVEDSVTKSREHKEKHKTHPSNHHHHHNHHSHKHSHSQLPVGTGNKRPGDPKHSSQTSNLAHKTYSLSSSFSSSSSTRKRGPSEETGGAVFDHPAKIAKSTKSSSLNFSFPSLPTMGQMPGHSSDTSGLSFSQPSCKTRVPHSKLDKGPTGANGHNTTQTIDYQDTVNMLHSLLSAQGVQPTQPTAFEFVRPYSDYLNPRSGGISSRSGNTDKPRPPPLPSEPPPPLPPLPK
T2 sequence (P50613 whole entry): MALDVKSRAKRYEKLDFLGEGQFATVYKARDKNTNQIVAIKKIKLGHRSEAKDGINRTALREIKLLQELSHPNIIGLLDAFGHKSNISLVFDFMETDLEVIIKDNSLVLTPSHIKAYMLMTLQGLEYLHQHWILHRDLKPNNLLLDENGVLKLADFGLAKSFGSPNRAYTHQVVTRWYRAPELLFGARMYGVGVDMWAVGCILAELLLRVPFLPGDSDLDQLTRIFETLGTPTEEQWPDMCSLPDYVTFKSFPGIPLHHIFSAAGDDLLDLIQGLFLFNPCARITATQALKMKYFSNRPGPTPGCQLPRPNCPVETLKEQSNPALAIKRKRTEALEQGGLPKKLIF
T2 sequence (P51946 whole entry partner): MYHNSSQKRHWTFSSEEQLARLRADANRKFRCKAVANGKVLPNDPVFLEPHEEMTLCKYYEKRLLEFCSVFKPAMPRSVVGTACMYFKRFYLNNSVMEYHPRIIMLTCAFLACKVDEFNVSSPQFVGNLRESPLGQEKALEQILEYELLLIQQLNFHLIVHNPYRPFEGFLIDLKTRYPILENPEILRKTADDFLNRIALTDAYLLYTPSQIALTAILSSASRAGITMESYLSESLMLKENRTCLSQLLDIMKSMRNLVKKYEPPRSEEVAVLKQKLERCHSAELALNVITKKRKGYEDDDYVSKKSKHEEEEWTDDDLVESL
T2 sequence (P51948 whole entry partner): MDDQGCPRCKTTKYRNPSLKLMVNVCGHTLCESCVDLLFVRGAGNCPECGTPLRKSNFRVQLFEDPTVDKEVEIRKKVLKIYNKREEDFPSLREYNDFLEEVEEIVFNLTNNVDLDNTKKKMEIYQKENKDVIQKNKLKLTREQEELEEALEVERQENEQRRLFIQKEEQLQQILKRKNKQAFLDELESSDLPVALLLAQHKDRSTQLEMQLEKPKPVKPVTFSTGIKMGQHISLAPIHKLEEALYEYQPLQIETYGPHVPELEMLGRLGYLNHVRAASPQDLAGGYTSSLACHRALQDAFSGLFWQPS

Consider `COc1ccccc1-c1ncnc(Nc2ccc3c(c2)N(S(N)(=O)=O)CC3)n1` [Compound F1, 6-[(4-(2-Methoxyphenyl)-1,3,5-triazin-2-yl)amino]-2,3-dihydro-1H-indole-1-sulfonamide], for which the Kd in experiment [1] came out at 131 nM; in experiment [2], 13400 nM; in experiment [3] it was 1100 nM; in experiment [4], 39.7 nM.

For `COCc1ccccc1-c1ncnc(Nc2cccc(CS(N)(=O)=O)c2)n1` [Compound B24, 3-[(4-(2-(Methoxymethyl)phenyl)-1,3,5-triazin-2-yl)amino]benzenemethanesulfonamide], the results for the Kd in experiment [1], in experiment [2] and in experiment [4] were 907 nM, above 10000 nM and 1110 nM, respectively.

`CNCc1ccc(OC)c(-c2ncnc(Nc3cccc(CS(N)(=O)=O)c3)n2)c1` [Compound O1, 3-[(4-(2-Methoxy-5-(methylamino-methyl)phenyl)-1,3,5-triazin-2-yl)amino]benzenemethanesulfonamide]: the results for the Kd in experiment [1], in experiment [2] and in experiment [4] were 5410 nM, above 30000 nM and 5980 nM, respectively.

Consider `COc1ccccc1-c1ncnc(Nc2cccc(NC(C)=O)c2)n1` [Compound M1, N-[3-((4-(2-Methoxyphenyl)-1,3,5-triazin-2-yl)amino)phenyl]acetamide], for which the Kd in experiment [1] was 146 nM; in experiment [2], above 30000 nM; in experiment [3], 1450 nM; in experiment [4], 71.2 nM.

As for `NCCCCOc1ccccc1-c1ncnc(Nc2cccc(CS(N)(=O)=O)c2)n1` [Compound I1, 3-[(4-(2-(4-Aminobutoxy)phenyl)-1,3,5-triazin-2-yl)amino]benzenemethanesulfonamide], the Kd in experiment [1] was 101 nM; in experiment [2], above 30000 nM; in experiment [4], 52 nM.

`CC(C)(C)OC(=O)NCCCCOc1ccccc1-c1ncnc(Nc2cccc(CS(N)(=O)=O)c2)n1` [Compound B17, 3-[(4-(2-(4-(tert-Butoxycarbonylamino)butoxy)phenyl)-1,3,5-triazin-2-yl)amino]benzenemethanesulfonamide]: the Kd came to 15 nM in experiment [1], 12800 nM in experiment [2], 2850 nM in experiment [3] and 6.4 nM in experiment [4].

As to `NS(=O)(=O)Cc1cccc(Nc2ncnc(-c3ccccc3CNC3CC3)n2)c1` [Compound B22, 3-[(4-(2-(Cyclopropylamino-methyl)phenyl)-1,3,5-triazin-2-yl)amino]benzenemethanesulfonamide], the values for the Kd in experiment [1] and in experiment [4] were 425 nM and 373 nM, respectively.

Take `COc1cc(F)ccc1-c1ncnc(Nc2cccc(CS(=O)(=O)NCCCCNC(=O)OC(C)(C)C)c2)n1` [Compound Q1, tert-Butyl [4-((3-((4-(4-Fluoro-2-methoxyphenyl)-1,3,5-triazin-2-yl)amino)phenyl)methylsulfonamido)butyl]carbamate]: the Kd in experiment [1] was 12.9 nM; in experiment [2], above 10000 nM; in experiment [3] it was 2090 nM; in experiment [4], 5 nM.

With `COc1cc(C(F)(F)F)ccc1-c1ncnc(Nc2cccc(CS(N)(=O)=O)c2)n1` [Compound B8, 3-[(4-(2-Methoxy-4-trifluoromethyl-phenyl)-1,3,5-triazin-2-yl)amino]benzenemethanesulfonamide], the Kd is 1230 nM in experiment [1], above 10000 nM in experiment [2] and 709 nM in experiment [4].

Consider `CCOC(=O)N=S(C)(=O)c1cccc(Nc2ncnc(-c3ccccc3OC)n2)c1` (racemic) [Compound G1, rac-S-[3-((4-(2-Methoxyphenyl)-1,3,5-triazin-2-yl)amino)phenyl]-N-ethoxycarbonyl-S-methyl-sulfoximide], for which the Kd is 105 nM in experiment [1], above 10000 nM in experiment [2], above 10000 nM in experiment [3] and 87.2 nM in experiment [4].

Take `COc1cc(F)ccc1-c1ncnc(Nc2cccc(CS(=O)(=O)NCCCCN)c2)n1` [Compound R1, N-(4-Aminobutyl)-1-[3-((4-(4-fluoro-2-methoxyphenyl)-1,3,5-triazin-2-yl)amino)phenyl]methanesulfonamide]: the Kd in experiment [1] was 5 nM; in experiment [2], above 10000 nM; in experiment [3], 2920 nM; in experiment [4] it was 5 nM.

`COc1ccc(C(F)(F)F)cc1-c1ncnc(Nc2cccc(CS(N)(=O)=O)c2)n1` [Compound B9, 3-[(4-(2-Methoxy-5-trifluoromethyl-phenyl)-1,3,5-triazin-2-yl)amino]benzenemethanesulfonamide]: the Kd in experiment [1] was 398 nM; in experiment [2], above 10000 nM; in experiment [4], 1590 nM.

With `COc1ccc(CO)cc1-c1ncnc(Nc2cccc(CS(N)(=O)=O)c2)n1` [Compound B10, 3-[(4-(5-Hydroxymethyl-2-methoxyphenyl)-1,3,5-triazin-2-yl)amino]benzenemethanesulfonamide], the values for the Kd in experiment [1], in experiment [2] and in experiment [4] were 309 nM, above 10000 nM and 110 nM, respectively.

`COc1c(F)cc(F)cc1-c1ncnc(Nc2cccc(CS(N)(=O)=O)c2)n1` [Compound B5, 3-[(4-(3,5-Difluoro-2-methoxyphenyl)-1,3,5-triazin-2-yl)amino]benzenemethanesulfonamide]: the Kd in experiment [1] is 835 nM; in experiment [2], above 10000 nM; in experiment [4] it was 286 nM.
